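Five concentrations, 48 hours, 96-well plates. Here, GI50 denotes the concentration required for 50% inhibition of growth. TGI: total growth inhibition.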

Test systems include CCRF-CEM leukemia; NCI-H522 lung; HL-60(TB) leukemia; M14 melanoma; OVCAR-8 ovarian; NCI-H23 lung; U251 CNS; KM12 colon; OVCAR-5 ovarian; MCF7 breast.
Common to all, as to assay: NCI-60 cell line screen, 48 h

For the compound `CN1C(c2ccccc2)CC(C)(O)CC1c1ccccc1` (centres undefined), the TGI in the assay with CCRF-CEM leukemia, in the assay with NCI-H522 lung, in the assay with HL-60(TB) leukemia, with M14 melanoma, in the assay on OVCAR-8 ovarian and in the assay on NCI-H23 lung was greater than 100 µM in each case. Also, the TGI in the assay on U251 CNS, in the assay with KM12 colon and in the assay on OVCAR-5 ovarian was greater than 100 µM throughout.

As for `Cn1cnc([N+](=O)[O-])c1Sc1nc2ccccc2o1`, the TGI in the assay on CCRF-CEM leukemia amounted to 12.8 µM; in the assay with NCI-H522 lung it was 4.42 µM; in the assay with HL-60(TB) leukemia, 3.79 µM; in the assay with M14 melanoma, 24.4 µM; in the assay on OVCAR-8 ovarian it was 10 µM; in the assay on NCI-H23 lung it was 17.1 µM. Also, the TGI in the assay on U251 CNS was found to be 26.2 µM; in the assay with KM12 colon, 20.5 µM; in the assay with OVCAR-5 ovarian, 19.4 µM.

As for `CCC[CH2][Sn]1([CH2]CCC)[O]C(=O)CN=C(C)c2ccccc2[O]1`, the GI50 is 0.179 µM with NCI-H522 lung; 1.37 µM in the assay on M14 melanoma; 1.39 µM in the assay with OVCAR-8 ovarian; 0.429 µM in the assay on NCI-H23 lung; 1.1 µM in the assay on U251 CNS; 1.27 µM in the assay on KM12 colon. Also, the GI50 in the assay on OVCAR-5 ovarian is 1.81 µM. Moreover, the TGI was found to be 0.369 µM with NCI-H522 lung; 2.67 µM in the assay on M14 melanoma; 2.83 µM in the assay with OVCAR-8 ovarian; 1.78 µM in the assay with NCI-H23 lung; 2.3 µM with U251 CNS; 2.58 µM in the assay with KM12 colon. Also, in the assay with OVCAR-5 ovarian, the TGI is 3.24 µM.

In the case of `COc1ccc(NC(=S)C#N)cc1`, the TGI in the assay with MCF7 breast, with CCRF-CEM leukemia, in the assay with HL-60(TB) leukemia, in the assay with M14 melanoma, with OVCAR-8 ovarian and with NCI-H23 lung was greater than 100 µM each time. The TGI in the assay with U251 CNS, with KM12 colon and with OVCAR-5 ovarian was greater than 100 µM throughout.

As for `O=C(O)CCC(=O)Oc1ccc(O)c2c1CCCC2=O`, the TGI with CCRF-CEM leukemia, in the assay with NCI-H522 lung, with HL-60(TB) leukemia, in the assay with M14 melanoma, in the assay with OVCAR-8 ovarian and in the assay with NCI-H23 lung was greater than 100 µM in each case. Further, the TGI in the assay with U251 CNS, with KM12 colon and in the assay with OVCAR-5 ovarian was greater than 100 µM throughout.

On to `N#CC(C(=O)CCC(=O)Nc1ccc(Cl)cc1)c1ccc(Cl)cc1` (centres undefined), for which the TGI with CCRF-CEM leukemia, in the assay on NCI-H522 lung, in the assay with HL-60(TB) leukemia, in the assay with M14 melanoma, with OVCAR-8 ovarian and in the assay with NCI-H23 lung was greater than 100 µM each time. The TGI in the assay with U251 CNS, in the assay on KM12 colon and in the assay on OVCAR-5 ovarian was greater than 100 µM in each case.

As to `O=C1C(Cl)=C(Cl)C(=O)N1c1ccccc1Cl`, the TGI is 19.3 µM in the assay on CCRF-CEM leukemia; 22.7 µM in the assay on NCI-H522 lung; 21.7 µM with HL-60(TB) leukemia; greater than 100 µM in the assay with M14 melanoma; greater than 100 µM in the assay on OVCAR-8 ovarian; greater than 100 µM in the assay on NCI-H23 lung. The TGI in the assay on U251 CNS, with KM12 colon and in the assay on OVCAR-5 ovarian was greater than 100 µM in each case.

As to `O=C(CCC(=O)Nc1ccc(Cl)cc1)CC(=O)c1ccc2ccccc2c1`, the TGI in the assay on CCRF-CEM leukemia, in the assay on NCI-H522 lung, in the assay with HL-60(TB) leukemia, in the assay on M14 melanoma, in the assay on OVCAR-8 ovarian and with NCI-H23 lung was greater than 100 µM in each case. The TGI with U251 CNS, in the assay on KM12 colon and with OVCAR-5 ovarian was greater than 100 µM in each case.

As to `O=C(Nc1ccccc1)n1cc(-c2ccccn2)c(N2CCOCC2)n1`, the TGI in the assay with CCRF-CEM leukemia was greater than 100 µM; in the assay on NCI-H522 lung it was 6.58 µM; with HL-60(TB) leukemia, 6.93 µM; in the assay with M14 melanoma, greater than 100 µM; with OVCAR-8 ovarian, greater than 100 µM; in the assay with U251 CNS, greater than 100 µM. In the assay on KM12 colon, the TGI came out at 62.7 µM.

Turning to `Cc1ccccc1C=NC12CC3CC(CC(C3)C1)C2`, the TGI in the assay with CCRF-CEM leukemia, in the assay on NCI-H522 lung, in the assay with HL-60(TB) leukemia, in the assay on M14 melanoma, with OVCAR-8 ovarian and in the assay on NCI-H23 lung was greater than 100 µM in each case. Further, the TGI with U251 CNS, with KM12 colon and in the assay with OVCAR-5 ovarian was greater than 100 µM in each case.

As to `CC(=O)n1nnc2ccc([N+](=O)[O-])cc21`, the TGI in the assay with CCRF-CEM leukemia, with NCI-H522 lung, in the assay with HL-60(TB) leukemia, in the assay with M14 melanoma, in the assay on OVCAR-8 ovarian and in the assay on NCI-H23 lung was greater than 100 µM throughout. The TGI with U251 CNS, in the assay on KM12 colon and in the assay on OVCAR-5 ovarian was greater than 100 µM in each case.

For `Cn1nc(-c2ccccc2)c2c(/C=C/c3ccc(Cl)cc3)onc2c1=O`, the TGI with CCRF-CEM leukemia was greater than 100 µM; in the assay on NCI-H522 lung it was 45.5 µM; with M14 melanoma it was greater than 100 µM; in the assay with OVCAR-8 ovarian it was 84.3 µM; in the assay with NCI-H23 lung, greater than 100 µM; in the assay with U251 CNS it was greater than 100 µM.

In the case of `COC(=O)C(=NNc1ccccc1[N+](=O)[O-])C(=O)OC`, the TGI in the assay on CCRF-CEM leukemia, in the assay on NCI-H522 lung, in the assay with HL-60(TB) leukemia, in the assay on OVCAR-8 ovarian, with NCI-H23 lung and with U251 CNS was greater than 100 µM throughout. The TGI in the assay on KM12 colon and in the assay with OVCAR-5 ovarian was greater than 100 µM throughout.

`CC12CCCC(C#N)(C1)OC2=O` (centres undefined): the TGI in the assay with CCRF-CEM leukemia, with NCI-H522 lung, in the assay with HL-60(TB) leukemia, in the assay with M14 melanoma, in the assay with OVCAR-8 ovarian and in the assay on NCI-H23 lung was greater than 100 µM each time. The TGI in the assay on U251 CNS, in the assay with KM12 colon and in the assay on OVCAR-5 ovarian was greater than 100 µM each time.

As for `CCc1cccc(C)c1N1C(=O)C(=O)C(c2nc3ccccc3o2)/C(=N/NC(=S)NN)C1=O` (centres undefined), the TGI with CCRF-CEM leukemia, in the assay with NCI-H522 lung, with HL-60(TB) leukemia, in the assay on M14 melanoma, with OVCAR-8 ovarian and with NCI-H23 lung was greater than 100 µM in each case. The TGI in the assay with U251 CNS, in the assay on KM12 colon and with OVCAR-5 ovarian was greater than 100 µM throughout.

(Values after PubChem BioAssay (NCI).)
